Biological target: Acrosin (Homo sapiens, UniProt P10323)
Test: Inhibition of acrosin in human spermatozoa assessed as effect on amidase activity after 3 hrs incubation by spectrophotometry

Chain of Acrosin (P10323 20-42 limits assumed): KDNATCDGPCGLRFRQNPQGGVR
Chain of Acrosin (P10323 43-343 limits assumed): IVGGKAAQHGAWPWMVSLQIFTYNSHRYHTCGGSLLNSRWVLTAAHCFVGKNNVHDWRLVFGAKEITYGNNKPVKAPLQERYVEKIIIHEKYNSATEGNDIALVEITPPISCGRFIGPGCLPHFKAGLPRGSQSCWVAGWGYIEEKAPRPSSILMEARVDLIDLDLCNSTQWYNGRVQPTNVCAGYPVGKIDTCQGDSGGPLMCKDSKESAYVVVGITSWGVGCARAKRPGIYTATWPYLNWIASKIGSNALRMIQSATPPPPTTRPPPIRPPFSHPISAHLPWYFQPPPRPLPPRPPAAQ

**Q.** With `COC(=O)Nc1nc2ccc(S(=O)(=O)Nc3cc(C)ccc3C)cc2[nH]1` as the compound, how does the IC50 read?
**A.** 8860 µM

**Q.** With `COC(=O)Nc1nc2ccc(S(=O)(=O)NCc3ccccc3F)cc2[nH]1` as the compound, how does the IC50 read?
**A.** 310 µM

**Q.** For `COC(=O)Nc1nc2ccc(S(=O)(=O)NCc3ccc(F)cc3)cc2[nH]1`, which IC50 is on record?
**A.** 2400 µM

**Q.** `COC(=O)Nc1nc2ccc(S(=O)(=O)NCc3ccc(Br)cc3)cc2[nH]1` was tested. Which IC50 did it give?
**A.** 1640 µM

**Q.** With `COC(=O)Nc1nc2ccc(S(=O)(=O)NCc3ccccc3Cl)cc2[nH]1` as the compound, how does the IC50 read?
**A.** 5750 µM

**Q.** How did the IC50 turn out when `COC(=O)Nc1nc2ccc(S(=O)(=O)NCc3ccc(Cl)cc3)cc2[nH]1` was run?
**A.** 7520 µM

**Q.** With `COC(=O)Nc1nc2ccc(S(=O)(=O)NCc3ccc(Cl)cc3Cl)cc2[nH]1` as the compound, how does the IC50 read?
**A.** 1270 µM

**Q.** `COC(=O)Nc1nc2ccc(S(=O)(=O)NCc3ccc(Cl)c(Cl)c3)cc2[nH]1` was tested. Which IC50 did it give?
**A.** 4020 µM

**Q.** For `COC(=O)Nc1nc2ccc(S(=O)(=O)NCc3ccc(OC)cc3)cc2[nH]1`, which IC50 is on record?
**A.** 3290 µM

**Q.** For `COC(=O)Nc1nc2ccc(S(=O)(=O)NCc3cccc(C)c3)cc2[nH]1`, which IC50 is on record?
**A.** 5060 µM

**Q.** For `COC(=O)Nc1nc2ccc(S(=O)(=O)NCc3ccc(C)cc3)cc2[nH]1`, which IC50 is on record?
**A.** 3180 µM

**Q.** With `COC(=O)Nc1nc2ccc(S(=O)(=O)NCc3ccccc3)cc2[nH]1` as the compound, how does the IC50 read?
**A.** 1030 µM

**Q.** With `COC(=O)Nc1nc2ccc(S(=O)(=O)NCc3ccc(C(F)(F)F)cc3)cc2[nH]1` as the compound, how does the IC50 read?
**A.** 10700 µM

**Q.** For `COC(=O)Nc1nc2ccc(S(=O)(=O)NCc3ccc(F)cc3F)cc2[nH]1`, which IC50 is on record?
**A.** 1550 µM

**Q.** `COC(=O)Nc1nc2ccc(S(=O)(=O)NCc3ccc(F)c(F)c3)cc2[nH]1` was tested. Which IC50 did it give?
**A.** 1590 µM

**Q.** `COC(=O)Nc1nc2ccc(S(=O)(=O)NCc3cccc(F)c3)cc2[nH]1` was tested. Which IC50 did it give?
**A.** 1810 µM

**Q.** How did the IC50 turn out when `COC(=O)Nc1nc2ccc(S(=O)(=O)NCc3ccccc3OC)cc2[nH]1` was run?
**A.** 8420 µM

**Q.** Which IC50 does the source give for `COC(=O)Nc1nc2ccc(S(=O)(=O)NCc3cccc(OC)c3)cc2[nH]1` here?
**A.** 7500 µM

**Q.** How did the IC50 turn out when `COC(=O)Nc1nc2ccc(S(=O)(=O)NCc3ccc(OC)c(OC)c3)cc2[nH]1` was run?
**A.** 11500 µM

**Q.** How did the IC50 turn out when `COC(=O)Nc1nc2ccc(S(=O)(=O)NC(C)C)cc2[nH]1` was run?
**A.** 470 µM

**Q.** `CCCCNS(=O)(=O)c1ccc2nc(NC(=O)OC)[nH]c2c1` was tested. Which IC50 did it give?
**A.** 1770 µM

**Q.** For `CCCCCCNS(=O)(=O)c1ccc2nc(NC(=O)OC)[nH]c2c1`, which IC50 is on record?
**A.** 1800 µM

**Q.** Which IC50 does the source give for `COC(=O)Nc1nc2ccc(S(=O)(=O)N(CCC(C)C)CCC(C)C)cc2[nH]1` here?
**A.** 63 µM

**Q.** For `COC(=O)Nc1nc2ccc(S(=O)(=O)N(C)Cc3ccccc3)cc2[nH]1`, which IC50 is on record?
**A.** 1250 µM

**Q.** For `O=Cc1cc(-c2ccc(Cl)cc2Cl)on1`, which IC50 is on record?
**A.** 1700 µM
